What all share (format): biochemical
One assay concerns the target T1, PI3Kα (Homo sapiens, UniProt P42336).
T1 construct: purchased Invitrogen (US)
Nature of the assay: In vitro enzyme activity (ADP-Glo) against PI3Kα. The settings on record: Table 2; ATP 10 μM, PIP2:PS 50 μM. Here is the method: (§1) In vitro enzyme activity experiments were performed to determine the IC50 values of the compounds against PI3K family type I kinases (PI3Kα, PI3Kβ, PI3Kγ, PI3Kδ) and type II kinases (PIK3C2A, PIK3C2B). Protein kinases PI3Kα, PI3Kγ, PI3Kδ, PIK3C2A, and PIK3C2B were all purchased from Invitrogen (US); protein kinase PI3Kβ was purchased from sigma (US); the three substrates PIP2: PS, PI and PI: PS were purchased from Invitrogen (US).
(§2) Protein kinases diluted to a certain concentration, i.e., PI3Kα 5.4 μL (with a final concentration of 0.16 ng/μL), PI3Kβ 5.4 μL (with a final concentration of 6 ng/μL), PI3Kδ 5.4 μL (with a final concentration of 1 ng/μL), PI3Kγ 5.4 μL (with a final concentration of 5 ng/μL), PIK3C2A 5.4 μL (with a final concentration of 5 ng/μL), and PIK3C2B 5.4 μL (with a final concentration of 10 ng/μL) were respectively reacted with 1 μL of the serially diluted drug compounds for 1 hour at room temperature (final drug concentrations were 10 μM, 1 μM, 0.3 μM, 0.1 μM, 0.03 μM, 0.01 μM, 0.003 μM, and 0.001 μM, respectively).
(§3) To each reaction tube of the above PI3K family type I kinases, 6 μL of a mixture of ATP (Promega, US) and substrate PIP2:PS (final concentrations of ATP in the reaction systems of kinases PI3Kα, and PI3Kβ were 10 μM, and final concentrations of ATP in the reaction systems of kinases PI3Kδ, and PI3Kγ were 50 μM, and final concentrations of the substrate PIP2:PS were all 50 μM) was added, and reacted at 37° C. for 1 hour. The reaction buffer was 50 mM Hepes (pH 7.5) (Promega, USA), 3 mM MgCl2, 1 mM EGTA (Promega, US), 100 mM NaCl, 0.03% CHAPS (Promega, US).
(§4) 5 μL of kinase solution after reaction was placed in a 384-well plate (Corning, US), and 5 μL of ADP-Glo™ reagent (Promega, US) was added thereto and reacted at room temperature for 40 minutes to stop the kinase reaction and exhaust the remaining ATP; 10 μL of kinase detection reagent was added to convert ADP into ATP, and coupled luciferase/luciferin reaction was utilized to detect the newly synthesized ATP. Envision was utilized for readout and plotting, and Graphpad IC50 value was calculated.

The next assay concerns the target T2, PI3Kγ (Homo sapiens, UniProt P48736).
T2 construct: purchased Invitrogen (US)
In words: In vitro enzyme activity (ADP-Glo) against PI3Kγ. To be noted: Table 2; ATP 50 μM, PIP2:PS 50 μM; read-out: IC50 against PI3Kγ. Here is the method: as §1, §2, §3, §4
(In general: In ADP-Glo the light output rises with the ADP produced.)

A further assay deals with T3, PI3Kδ (Homo sapiens, UniProt O00329).
T3 construct: purchased Invitrogen (US)
Nature of the assay: In vitro enzyme activity (ADP-Glo) against PI3Kδ. The settings on record: Table 2; ATP 50 μM, PIP2:PS 50 μM. On the procedure: as §1, §2, §3, §4

The target of the next assay is T4, PI3Kβ (Homo sapiens, UniProt P42338).
T4 construct: purchased sigma (US)
Nature of the assay: In vitro enzyme activity (ADP-Glo) against PI3Kβ. The settings on record: Table 2; ATP 10 μM, PIP2:PS 50 μM; read-out: IC50 against PI3Kβ. Here is the method: as §1, §2, §3, §4

Data on 15 molecules can be found in patent US12221448B2, “Selective PI3Kδ inhibitor and use thereof” (TARAPEUTICS SCIENCE INC., priority 2018, dated 2025).

For orientation: IC50 means the concentration needed to halve the response being measured.

T3 sequence (O00329 whole entry): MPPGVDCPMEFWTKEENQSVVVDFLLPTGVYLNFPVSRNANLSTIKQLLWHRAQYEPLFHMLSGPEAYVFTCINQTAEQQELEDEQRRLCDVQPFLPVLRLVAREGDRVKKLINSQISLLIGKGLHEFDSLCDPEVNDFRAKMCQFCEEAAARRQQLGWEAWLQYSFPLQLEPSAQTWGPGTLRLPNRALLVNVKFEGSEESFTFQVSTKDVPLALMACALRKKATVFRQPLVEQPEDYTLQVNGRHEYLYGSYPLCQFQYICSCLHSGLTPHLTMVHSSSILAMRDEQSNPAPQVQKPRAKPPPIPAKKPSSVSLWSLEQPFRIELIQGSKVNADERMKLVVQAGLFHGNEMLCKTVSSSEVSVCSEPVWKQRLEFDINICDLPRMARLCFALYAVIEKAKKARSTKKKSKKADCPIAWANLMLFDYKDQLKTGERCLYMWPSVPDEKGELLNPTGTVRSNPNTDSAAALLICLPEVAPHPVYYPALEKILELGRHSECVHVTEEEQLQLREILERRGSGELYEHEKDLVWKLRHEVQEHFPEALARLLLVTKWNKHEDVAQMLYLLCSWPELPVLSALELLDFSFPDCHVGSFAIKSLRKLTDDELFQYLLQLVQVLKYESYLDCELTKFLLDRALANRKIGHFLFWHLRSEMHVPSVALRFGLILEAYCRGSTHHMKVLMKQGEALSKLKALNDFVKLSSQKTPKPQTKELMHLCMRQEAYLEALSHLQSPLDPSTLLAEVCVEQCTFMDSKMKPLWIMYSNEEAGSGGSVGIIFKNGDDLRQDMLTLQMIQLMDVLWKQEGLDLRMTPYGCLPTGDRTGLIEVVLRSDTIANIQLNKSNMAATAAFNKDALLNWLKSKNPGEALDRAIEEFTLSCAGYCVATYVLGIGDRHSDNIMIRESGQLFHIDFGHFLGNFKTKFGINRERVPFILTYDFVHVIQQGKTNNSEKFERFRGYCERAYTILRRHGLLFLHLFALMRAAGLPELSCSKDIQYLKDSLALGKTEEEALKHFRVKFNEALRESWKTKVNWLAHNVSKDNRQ
T3 sequence (P27986 whole entry partner): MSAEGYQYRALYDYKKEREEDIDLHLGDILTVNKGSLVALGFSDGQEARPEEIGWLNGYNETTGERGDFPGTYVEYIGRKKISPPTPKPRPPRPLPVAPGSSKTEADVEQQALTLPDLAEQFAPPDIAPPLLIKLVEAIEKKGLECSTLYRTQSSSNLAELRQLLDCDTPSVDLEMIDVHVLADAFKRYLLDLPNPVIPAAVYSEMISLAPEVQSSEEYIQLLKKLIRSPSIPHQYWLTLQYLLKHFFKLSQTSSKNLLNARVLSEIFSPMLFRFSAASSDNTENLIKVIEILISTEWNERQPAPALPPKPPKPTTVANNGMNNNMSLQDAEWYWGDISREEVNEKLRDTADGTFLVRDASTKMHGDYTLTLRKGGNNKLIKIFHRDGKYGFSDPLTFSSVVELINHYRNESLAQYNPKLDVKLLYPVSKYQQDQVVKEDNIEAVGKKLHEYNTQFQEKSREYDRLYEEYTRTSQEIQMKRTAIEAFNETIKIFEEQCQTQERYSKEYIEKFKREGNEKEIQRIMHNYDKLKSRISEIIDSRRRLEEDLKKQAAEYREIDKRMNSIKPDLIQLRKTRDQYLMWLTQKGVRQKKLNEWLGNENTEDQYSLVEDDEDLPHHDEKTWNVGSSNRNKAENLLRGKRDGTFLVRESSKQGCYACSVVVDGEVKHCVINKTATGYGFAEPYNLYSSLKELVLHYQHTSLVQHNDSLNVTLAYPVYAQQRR
T4 sequence (P42338 whole entry): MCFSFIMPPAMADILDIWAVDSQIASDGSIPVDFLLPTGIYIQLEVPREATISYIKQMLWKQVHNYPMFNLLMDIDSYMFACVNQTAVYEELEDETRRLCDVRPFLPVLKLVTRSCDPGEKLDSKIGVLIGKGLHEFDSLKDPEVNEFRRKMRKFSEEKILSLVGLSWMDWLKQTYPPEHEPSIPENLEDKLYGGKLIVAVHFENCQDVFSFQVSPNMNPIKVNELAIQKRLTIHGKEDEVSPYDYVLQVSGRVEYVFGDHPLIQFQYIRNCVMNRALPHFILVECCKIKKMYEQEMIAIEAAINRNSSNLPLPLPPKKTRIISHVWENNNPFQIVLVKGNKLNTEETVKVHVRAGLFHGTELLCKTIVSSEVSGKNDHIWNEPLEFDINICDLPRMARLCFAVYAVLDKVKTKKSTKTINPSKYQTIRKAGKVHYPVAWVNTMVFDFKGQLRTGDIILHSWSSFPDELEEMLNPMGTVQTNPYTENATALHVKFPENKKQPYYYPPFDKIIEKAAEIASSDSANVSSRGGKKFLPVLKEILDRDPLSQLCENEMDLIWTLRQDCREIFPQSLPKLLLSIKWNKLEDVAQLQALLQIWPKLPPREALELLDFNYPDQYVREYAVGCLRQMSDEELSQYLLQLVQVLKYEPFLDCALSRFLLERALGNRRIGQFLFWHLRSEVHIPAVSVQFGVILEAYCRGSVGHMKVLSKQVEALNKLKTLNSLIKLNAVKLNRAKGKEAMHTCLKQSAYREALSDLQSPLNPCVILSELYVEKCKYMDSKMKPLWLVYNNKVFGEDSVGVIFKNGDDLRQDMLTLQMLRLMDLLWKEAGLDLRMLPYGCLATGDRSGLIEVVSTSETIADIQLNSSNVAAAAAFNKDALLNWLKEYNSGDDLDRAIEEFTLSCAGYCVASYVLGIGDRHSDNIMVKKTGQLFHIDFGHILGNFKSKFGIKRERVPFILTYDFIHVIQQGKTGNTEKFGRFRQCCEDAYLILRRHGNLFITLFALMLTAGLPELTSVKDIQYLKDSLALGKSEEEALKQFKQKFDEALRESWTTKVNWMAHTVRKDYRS
T4 sequence (P27986 whole entry partner): as the sequence (P27986 whole entry partner) above
T2 sequence (P48736 whole entry): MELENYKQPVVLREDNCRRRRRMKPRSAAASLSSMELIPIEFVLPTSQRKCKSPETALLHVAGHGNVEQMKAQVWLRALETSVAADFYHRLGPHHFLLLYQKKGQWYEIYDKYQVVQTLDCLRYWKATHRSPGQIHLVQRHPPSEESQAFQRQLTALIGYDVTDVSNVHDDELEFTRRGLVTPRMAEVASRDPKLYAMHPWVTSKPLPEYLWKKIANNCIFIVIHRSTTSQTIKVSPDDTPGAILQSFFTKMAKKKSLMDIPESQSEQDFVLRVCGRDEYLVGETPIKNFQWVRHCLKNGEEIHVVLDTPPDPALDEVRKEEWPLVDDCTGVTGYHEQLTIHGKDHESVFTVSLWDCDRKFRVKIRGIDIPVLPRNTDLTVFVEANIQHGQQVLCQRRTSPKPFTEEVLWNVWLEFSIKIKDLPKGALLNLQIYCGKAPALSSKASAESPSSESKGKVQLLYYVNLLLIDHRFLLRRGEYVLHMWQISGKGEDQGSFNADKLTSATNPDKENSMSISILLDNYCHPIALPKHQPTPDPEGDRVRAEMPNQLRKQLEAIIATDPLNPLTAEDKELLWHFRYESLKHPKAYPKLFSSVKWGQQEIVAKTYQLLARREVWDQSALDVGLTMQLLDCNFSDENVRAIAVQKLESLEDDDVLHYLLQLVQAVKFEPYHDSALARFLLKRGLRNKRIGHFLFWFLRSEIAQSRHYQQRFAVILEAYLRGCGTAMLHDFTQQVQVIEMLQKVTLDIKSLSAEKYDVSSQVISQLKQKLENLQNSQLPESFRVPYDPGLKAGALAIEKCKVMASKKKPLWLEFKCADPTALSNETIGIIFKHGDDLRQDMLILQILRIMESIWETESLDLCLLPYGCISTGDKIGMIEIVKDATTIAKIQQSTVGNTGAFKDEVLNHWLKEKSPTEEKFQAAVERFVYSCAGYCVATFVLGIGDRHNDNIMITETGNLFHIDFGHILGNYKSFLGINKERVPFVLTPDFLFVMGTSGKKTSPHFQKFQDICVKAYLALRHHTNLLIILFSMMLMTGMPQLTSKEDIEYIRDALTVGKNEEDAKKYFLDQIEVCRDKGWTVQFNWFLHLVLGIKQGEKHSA
T1 sequence (P42336 whole entry): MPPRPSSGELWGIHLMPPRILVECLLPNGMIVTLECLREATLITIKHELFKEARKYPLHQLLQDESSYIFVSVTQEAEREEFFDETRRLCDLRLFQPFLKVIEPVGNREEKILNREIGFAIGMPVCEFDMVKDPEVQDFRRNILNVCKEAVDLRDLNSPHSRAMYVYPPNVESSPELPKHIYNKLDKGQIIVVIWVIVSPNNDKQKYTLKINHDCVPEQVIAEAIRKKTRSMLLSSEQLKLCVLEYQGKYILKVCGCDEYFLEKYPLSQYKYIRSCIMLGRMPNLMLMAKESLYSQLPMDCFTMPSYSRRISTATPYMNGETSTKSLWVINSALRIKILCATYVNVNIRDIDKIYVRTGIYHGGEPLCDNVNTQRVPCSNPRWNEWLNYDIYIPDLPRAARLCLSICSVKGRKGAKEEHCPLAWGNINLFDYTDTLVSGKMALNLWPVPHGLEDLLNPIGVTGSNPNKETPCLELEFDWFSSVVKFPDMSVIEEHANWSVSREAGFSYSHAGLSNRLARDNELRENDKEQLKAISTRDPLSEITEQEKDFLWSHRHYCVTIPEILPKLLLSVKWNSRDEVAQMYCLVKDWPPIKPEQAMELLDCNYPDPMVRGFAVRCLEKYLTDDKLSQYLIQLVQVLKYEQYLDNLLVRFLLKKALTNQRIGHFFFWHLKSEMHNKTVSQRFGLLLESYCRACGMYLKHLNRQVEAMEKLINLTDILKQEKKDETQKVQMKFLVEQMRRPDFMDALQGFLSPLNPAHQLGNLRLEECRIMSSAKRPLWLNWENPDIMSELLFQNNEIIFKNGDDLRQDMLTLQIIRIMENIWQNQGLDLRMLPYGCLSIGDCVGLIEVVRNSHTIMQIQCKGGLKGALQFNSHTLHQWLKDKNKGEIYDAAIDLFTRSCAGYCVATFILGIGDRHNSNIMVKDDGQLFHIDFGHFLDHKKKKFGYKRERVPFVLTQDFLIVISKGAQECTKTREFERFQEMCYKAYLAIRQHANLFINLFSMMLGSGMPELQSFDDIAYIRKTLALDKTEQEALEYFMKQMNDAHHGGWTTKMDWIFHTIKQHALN
T1 sequence (P27986 whole entry partner): as the sequence (P27986 whole entry partner) above

Consider `COc1ccc(-c2nn(C(C)c3nc4cccc(F)c4c(=O)n3C3CCC3)c3ncnc(N)c23)cc1F` (stereo not drawn) [Compound 1, 2-(1-(4-amino-3-(3-fluoro-4-methoxyphenyl)-1H-pyrazolo [3,4-d]pyrimidin-1-yl)ethyl)-3-cyclobutyl-5-fluoroquinazolin-4(3H)-one], for which the IC50 turned out to be 7.41 µM against PI3Kα, 4.09 µM at PI3Kγ, 0.0274 µM against PI3Kδ and 2.96 µM at PI3Kβ.
`COc1ccc(-c2nn(C(C)c3nc4cccc(F)c4c(=O)n3C3CCCC3)c3ncnc(N)c23)cc1F` (stereo not drawn) [Compound 5, 2-(1-(4-amino-3-(3-fluoro-4-methoxyphenyl)-1H-pyrazolo [3,4-d]pyrimidin-1-yl)ethyl)-3-cyclopentyl-5-fluoroquinazolin-4(3H)-one]: the IC50 on PI3Kα is 5.52 µM; at PI3Kγ it was 1.72 µM; on PI3Kδ, 0.0186 µM; on PI3Kβ it was greater than 10 µM.
For `COc1ccc(-c2nn(C(C)c3nc4ccccc4c(=O)n3C3CCC3)c3ncnc(N)c23)cc1OC` (stereo not drawn) [Compound 38, 2-(1-(4-amino-3-(3,4-dimethoxyphenyl)-1H-pyrazolo [3,4-d]pyrimidin-1-yl)ethyl)-3-cyclobutylquinazolin-4(3H)-one] the same measures were 2.23 µM, 0.261 µM, 0.00959 µM and 0.581 µM.
For the molecule `COc1ccc(-c2nn(C(C)c3nc4ccc(F)cc4c(=O)n3C3CC3)c3ncnc(N)c23)cc1` (stereo not drawn) [Compound 42, 2-(1-(4-amino-3-(4-methoxyphenyl)-1H-pyrazolo [3,4-d]pyrimidin-1-yl)ethyl)-3-cyclopropyl-6-fluoroquinazolin-4(3H)-one], the half-inhibitory concentration (IC50) amounted to 3.77 µM against PI3Kα, 0.576 µM at PI3Kγ, 0.0083 µM on PI3Kδ and 0.69 µM on PI3Kβ.
As to `CCC(c1nc2ccccc2c(=O)n1C1CC1)n1nc(-c2ccc(OC)c(F)c2)c2c(N)ncnc21` (stereo not drawn) [Compound 11, 2-(1-(4-amino-3-(3-fluoro-4-methoxyphenyl)-1H-pyrazolo [3,4-d]pyrimidin-1-yl)propyl)-3-cyclopropylquinazolin-4(3H)-one], the IC50 came out at 0.389 µM at PI3Kγ, 0.0183 µM against PI3Kδ and 0.27 µM on PI3Kβ.
`COc1ccc(-c2nn(C(C)c3nc4cccc(F)c4c(=O)n3C3CCC3)c3ncnc(N)c23)cc1OC` (stereo not drawn) [Compound 27, 2-(1-(4-amino-3-(3,4-dimethoxyphenyl)-1H-pyrazolo [3,4-d]pyrimidin-1-yl)ethyl)-3-cyclobutyl-5-fluoroquinazolin-4(3H)-one]: the IC50 against PI3Kα amounted to 1.1 µM; on PI3Kγ, 0.434 µM; against PI3Kδ, 0.0103 µM.
Turning to `COc1ccc(-c2nn(C(C)c3nc4cccc(F)c4c(=O)n3C3CC3)c3ncnc(N)c23)cc1F` (stereo not drawn) [Compound 8, 2-(1-(4-amino-3-(3-fluoro-4-methoxyphenyl)-1H-pyrazolo [3,4-d]pyrimidin-1-yl)ethyl)-3-cyclopropyl-5-fluoroquinazolin-4(3H)-one], the IC50 on PI3Kα stood at 1.72 µM; on PI3Kγ it was 0.148 µM; against PI3Kδ it was 0.014 µM; at PI3Kβ, 1.3 µM.
For `COc1ccc(-c2nn(C(C)c3nc4ccc(F)cc4c(=O)n3C3CC3)c3ncnc(N)c23)cc1F` (stereo not drawn) [Compound 22, 2-(1-(4-amino-3-(3-fluoro-4-methoxyphenyl)-1H-pyrazolo [3,4-d]pyrimidin-1-yl)ethyl)-3-cyclopropyl-6-fluoroquinazolin-4(3H)-one] the same measures were 1.69 µM, 0.485 µM, 0.0041 µM and 0.344 µM.
`CC[C@@H](c1nc2cccc(F)c2c(=O)n1C1CC1)n1nc(-c2ccc(OC)c(F)c2)c2c(N)ncnc21` [Compound 81, 2-((S)-1-(4-amino-3-(3-fluoro-4-methoxyphenyl)-1H-pyrazolo [3,4-d]pyrimidin-1-yl)propyl)-3-cyclopropyl-5-fluoroquinazolin-4(3H)-one]: the IC50 amounted to 0.471 µM on PI3Kγ, 0.0164 µM on PI3Kδ and 0.79 µM at PI3Kβ.
For `COc1ccc(-c2nn(C(C)c3nc4ccccc4c(=O)n3C3CC3)c3ncnc(N)c23)cc1F` (stereo not drawn) [Compound 10, 2-(1-(4-amino-3-(3-fluoro-4-methoxyphenyl)-1H-pyrazolo [3,4-d]pyrimidin-1-yl)ethyl)-3-cyclopropylquinazolin-4(3H)-one] the same measures were 0.103 µM, 0.0064 µM and 0.122 µM.
Regarding `CCC(c1nc2ccc(F)cc2c(=O)n1C1CC1)n1nc(-c2ccc(OC)c(F)c2)c2c(N)ncnc21` (stereo not drawn) [Compound 23, 2-(1-(4-amino-3-(3-fluoro-4-methoxyphenyl)-1H-pyrazolo [3,4-d]pyrimidin-1-yl)propyl)-3-cyclopropyl-6-fluoroquinazolin-4(3H)-one], the 50% inhibitory concentration (IC50) on PI3Kα turned out to be 6.44 µM; on PI3Kγ, 0.922 µM; at PI3Kδ, 0.0095 µM; on PI3Kβ, 0.999 µM.
For `COc1ccc(-c2nn(Cc3nc4cccc(F)c4c(=O)n3C3CC3)c3ncnc(N)c23)cc1F` [Compound 6, 2-((4-amino-3-(3-fluoro-4-methoxyphenyl)-1H-pyrazolo [3,4-d]pyrimidin-1-yl)methyl)-3-cyclopropyl-5-fluoroquinazolin-4(3H)-one] the same measures were 1.69 µM, 0.299 µM, 0.031 µM and 0.523 µM.
Turning to `COc1ccc(-c2nn(C(C)c3nc4cccc(F)c4c(=O)n3C3CCC3)c3ncnc(N)c23)cc1` (stereo not drawn) [Compound 19, 2-(1-(4-amino-3-(4-methoxyphenyl)-1H-pyrazolo [3,4-d]pyrimidin-1-yl)ethyl)-3-cyclobutyl-5-fluoroquinazolin-4(3H)-one], the concentration for half-maximal inhibition (IC50) came to 0.689 µM on PI3Kγ, 0.0379 µM at PI3Kδ and 0.547 µM at PI3Kβ.
For `COc1ccc(-c2nn(C(C)c3nc4cccc(F)c4c(=O)n3C3CCCC3)c3ncnc(N)c23)cc1` (stereo not drawn) [Compound 14, 2-(1-(4-amino-3-(4-methoxyphenyl)-1H-pyrazolo [3,4-d]pyrimidin-1-yl)ethyl)-3-cyclopentyl-5-fluoroquinazolin-4(3H)-one] the same measures were greater than 10 µM, 0.0319 µM and greater than 10 µM.
As to `COc1ccc(-c2nn(C(C)c3nc4ccccc4c(=O)n3C3CCC3)c3ncnc(N)c23)cc1` (stereo not drawn) [Compound 37, 2-(1-(4-amino-3-(4-methoxyphenyl)-1H-pyrazolo [3,4-d]pyrimidin-1-yl)ethyl)-3-cyclobutylquinazolin-4(3H)-one], the concentration for half-maximal inhibition (IC50) at PI3Kα worked out at 4.21 µM; on PI3Kγ it was 0.753 µM; on PI3Kδ, 0.001 µM; at PI3Kβ, 3.28 µM.
